Results on 22 compounds are retold here after ChEMBL document CHEMBL5131384, “Design, synthesis, and biological evaluation of indole-based hydroxamic acid derivatives as histone deacetylase inhibitors” (Eur J Med Chem, 2022).

Test [1] addresses Histone deacetylase 1 (Homo sapiens, UniProt Q13547). Briefly: Inhibition of HDAC1 (unknown origin) using Boc-Lys(Ac)-AMC as substrate incubated for 60 mins by fluorescence plate reader assay.
The target in test [2] is T1, Protein deacetylase HDAC6 (Homo sapiens, UniProt Q9UBN7).
T1 sequence (Q9UBN7 whole entry): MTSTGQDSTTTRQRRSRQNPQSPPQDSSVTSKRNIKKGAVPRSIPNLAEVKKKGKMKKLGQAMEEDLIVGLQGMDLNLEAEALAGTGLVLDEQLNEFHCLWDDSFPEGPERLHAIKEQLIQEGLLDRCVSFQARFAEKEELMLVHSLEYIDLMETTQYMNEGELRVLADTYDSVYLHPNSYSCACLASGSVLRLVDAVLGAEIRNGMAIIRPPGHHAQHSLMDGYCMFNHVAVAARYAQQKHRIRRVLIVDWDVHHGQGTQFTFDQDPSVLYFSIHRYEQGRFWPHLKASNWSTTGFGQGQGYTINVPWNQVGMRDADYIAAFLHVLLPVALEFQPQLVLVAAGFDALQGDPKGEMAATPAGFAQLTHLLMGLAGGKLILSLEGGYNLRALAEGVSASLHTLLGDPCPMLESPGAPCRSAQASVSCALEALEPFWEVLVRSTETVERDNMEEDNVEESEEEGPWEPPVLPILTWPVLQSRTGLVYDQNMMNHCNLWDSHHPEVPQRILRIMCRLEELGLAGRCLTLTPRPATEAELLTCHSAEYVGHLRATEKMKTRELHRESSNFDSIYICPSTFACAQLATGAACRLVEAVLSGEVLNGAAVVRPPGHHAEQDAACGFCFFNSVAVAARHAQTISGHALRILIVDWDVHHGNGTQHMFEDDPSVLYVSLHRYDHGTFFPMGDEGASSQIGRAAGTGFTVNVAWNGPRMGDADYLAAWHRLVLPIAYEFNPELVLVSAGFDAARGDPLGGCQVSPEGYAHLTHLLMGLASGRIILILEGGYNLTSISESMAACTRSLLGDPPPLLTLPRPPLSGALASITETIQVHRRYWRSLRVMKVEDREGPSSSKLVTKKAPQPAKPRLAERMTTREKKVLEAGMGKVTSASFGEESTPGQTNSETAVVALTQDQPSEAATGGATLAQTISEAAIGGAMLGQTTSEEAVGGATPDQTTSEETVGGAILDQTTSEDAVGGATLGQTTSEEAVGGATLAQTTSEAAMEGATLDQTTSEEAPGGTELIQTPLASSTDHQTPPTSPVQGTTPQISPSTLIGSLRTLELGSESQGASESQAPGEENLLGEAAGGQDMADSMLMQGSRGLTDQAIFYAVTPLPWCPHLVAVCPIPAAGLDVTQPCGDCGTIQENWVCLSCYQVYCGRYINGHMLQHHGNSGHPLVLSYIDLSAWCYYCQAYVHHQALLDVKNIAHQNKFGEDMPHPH
In words: Inhibition of HDAC6 (unknown origin) using Boc-Lys(Ac)-AMC as substrate incubated for 60 mins by fluorescence plate reader assay.

The test system of test [3] is A549. In words: Antiproliferative activity against human A549 cells assessed as reduction in cell viability incubated for 72 hrs by WST-8 assay. Format: functional, cell-based. The following applies: A549, 72 h. Background: Tetrazolium assays rely on reduction of a dye to a coloured formazan, in cell work by metabolically active cells.
The subject of test [4] is MDA-MB-231. In words: Antiproliferative activity against human MDA-MB-231 cells assessed as reduction in cell viability incubated for 72 hrs by WST-8 assay. Format: functional, cell-based. As to conditions: MDA-MB-231, 72 h.
Test [5] deals with SGC-7901. In words: Antiproliferative activity against human SGC-7901 cells assessed as reduction in cell viability incubated for 72 hrs by WST-8 assay. In kind it is functional, cell-based. The following applies: SGC-7901, 72 h.
The test system of test [6] is HCT-116. Briefly: Antiproliferative activity against human HCT-116 cells assessed as reduction in cell viability incubated for 72 hrs by WST-8 assay. In kind it is functional, cell-based. The following applies: HCT-116, 72 h.
The subject of test [7] is HL-60. In words: Antiproliferative activity against human HL-60 cells assessed as reduction in cell viability incubated for 72 hrs by WST-8 assay. In kind it is functional, cell-based. The following applies: HL-60, 72 h.
Test [8] has as its system HCT-116. In words: Induction of apoptosis in human HCT-116 cells assessed as early apoptotic cells at 1 uM incubated for 48 hrs by Annexin V-FITC/propidium iodide staining-based flow cytometric analysis (reference value: 1.73 %). In kind it is functional. On the technique in general: Flow cytometry measures light scatter and fluorescence of single cells or particles in a stream.

Test [9] relates to HCT-116. Briefly: Induction of apoptosis in human HCT-116 cells assessed as late apoptotic cells at 1 uM incubated for 48 hrs by Annexin V-FITC/propidium iodide staining-based flow cytometric analysis (reference value: 5.80 %). Format: functional.
For test [10], the system named is HCT-116. In words: Induction of cell cycle arrest in human HCT-116 cells assessed as increase in accumulation of cells at G2/M phase at 1 uM incubated for 24 hrs by flow cytometry analysis. In kind it is functional, cell-based.
The test system of test [11] is HCT-116. In words: Induction of cell cycle arrest in human HCT-116 cells assessed as decrease in accumulation of cells at S phase at 1 uM incubated for 24 hrs by flow cytometry analysis. Format: functional, cell-based.

Molecules are shown by their SMILES. Activity calls are given as the source filed them. No cut-off for these calls is given here.

Chain of Histone deacetylase 1 (Q13547 whole entry): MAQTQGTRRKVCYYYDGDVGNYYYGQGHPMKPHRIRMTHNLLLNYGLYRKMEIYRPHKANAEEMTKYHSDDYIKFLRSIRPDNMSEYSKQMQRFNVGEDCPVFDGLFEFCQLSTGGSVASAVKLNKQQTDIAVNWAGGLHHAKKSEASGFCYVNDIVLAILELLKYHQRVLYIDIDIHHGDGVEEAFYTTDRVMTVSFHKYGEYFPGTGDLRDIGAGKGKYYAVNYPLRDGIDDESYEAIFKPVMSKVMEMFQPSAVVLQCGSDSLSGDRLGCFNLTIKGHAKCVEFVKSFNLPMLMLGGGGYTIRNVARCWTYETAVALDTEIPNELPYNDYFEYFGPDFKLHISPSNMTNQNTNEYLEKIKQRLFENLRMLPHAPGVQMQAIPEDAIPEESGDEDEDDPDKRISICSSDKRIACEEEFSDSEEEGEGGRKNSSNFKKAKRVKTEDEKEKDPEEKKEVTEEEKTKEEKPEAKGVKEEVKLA

With `O=C(CCCCCCn1c(C(=O)NC2C3CC4CC(C3)CC2C4)cc2ccc(Br)cc21)NO` (configuration not stated), the IC50 (in general, the point on the concentration scale where inhibition reaches its midpoint) came out at 0.00316 µM in [1]; 0.00464 µM in [2]; 0.92 µM in [3]; 1.77 µM in test [4]; 0.18 µM in test [5]; 0.63 µM in [6]. The half-maximal inhibitory concentration (IC50) in [7] is 0.51 µM.
With `O=C(NC1C2CC3CC(C2)CC1C3)c1cn(CCCCCCS)c2ccccc12` (configuration not stated), the figures for the IC50 in test [1] and in [2] were 0.169 µM and 0.019 µM, respectively.
As for `O=C(CCCCCCn1cc(C(=O)Nc2ccc(Cl)cc2Cl)c2ccccc21)NO`, the IC50 stood at 0.00253 µM in test [1]; 0.00373 µM in test [2]; 47 µM in test [3]; 16.2 µM in test [4]; 2.59 µM in test [5]; 4.5 µM in [6]. Further, the 50% inhibitory concentration (IC50) in test [7] came out at 10.5 µM.
On to `O=C(CCCCCn1cc(C(=O)NC2C3CC4CC(C3)CC2C4)c2ccccc21)NO` (configuration not stated), for which the IC50 worked out at 0.0674 µM in [1] and 0.0104 µM in [2].
Turning to `O=C(CCCCCCn1cc(C(=O)NC2CCCCCC2)c2ccccc21)NO`, the IC50 in test [1] worked out at 0.002 µM; in test [2], 0.00211 µM.
In the case of `O=C(NC1C2CC3CC(C2)CC1C3)c1cn(CCCCCCCS)c2ccccc12` (configuration not stated), the half-inhibitory concentration (IC50) in [1] was determined as 0.188 µM; in test [2], 0.232 µM.
As to `O=C(CCCCCCn1cc(C(=O)NC2C3CC4CC(C3)CC2C4)c2ccccc21)NO` (configuration not stated), the IC50 in test [1] was 0.00204 µM; in test [2] it was 0.0017 µM.
As to `O=C(CCCCCCn1cc(C(=O)NC2CCCCC2)c2ccccc21)NO`, the half-inhibitory concentration (IC50) was 0.00156 µM in test [1]; 0.00232 µM in test [2]; > 100 µM in test [3]; > 100 µM in test [4]; 25.4 µM in test [5]; 15 µM in [6]. Besides, the half-maximal inhibitory concentration (IC50) in [7] was found to be 8.5 µM.
For `O=C(CCCCCCn1c(C(=O)NC2C3CC4CC(C3)CC2C4)cc2ccccc21)NO` (configuration not stated), the IC50 in test [1] came to 0.0021 µM; in [2], 0.00243 µM; in test [3] it was 60.9 µM; in test [4], 42.6 µM; in test [5], 6.8 µM; in test [6] it was 13.8 µM. Besides, in [7], the IC50 is 5.74 µM.
On to `CC(=O)SCCCCCCn1cc(C(=O)NC2C3CC4CC(C3)CC2C4)c2ccccc21` (configuration not stated), for which the IC50 in [1] and in test [2] was > 1 µM in each case.
For `O=C(CCCCCCn1c(C(=O)NC2C3CC4CC(C3)CC2C4)nc2ccccc21)NO` (configuration not stated), the IC50 worked out at 0.00168 µM in test [1] and 0.00525 µM in [2].
For the compound `O=C(CCCCCCn1c(C(=O)NC2C3CC4CC(C3)CC2C4)cc2cc(Cl)ccc21)NO` (configuration not stated), the 50% inhibitory concentration (IC50) in test [1] is 0.00216 µM; in [2], 0.00684 µM.
For the compound `O=C(NO)c1ccc(Cn2cc(C(=O)NC3C4CC5CC(C4)CC3C5)c3ccccc32)cc1` (configuration not stated), the half-maximal inhibitory concentration (IC50) in test [1] was found to be 0.115 µM; in test [2], 0.00529 µM.
In the same order, the values of `CC(=O)SCCCCCCCn1cc(C(=O)NC2C3CC4CC(C3)CC2C4)c2ccccc21` (configuration not stated) are > 1 µM and > 1 µM.
With `O=C(CCCCn1cc(C(=O)NC2C3CC4CC(C3)CC2C4)c2ccccc21)NO` (configuration not stated), the IC50 is 0.0536 µM in test [1] and 0.0399 µM in test [2].
`O=C(CCCCCCn1cc(C(=O)NC2CCCCCCC2)c2ccccc21)NO`: the IC50 was 0.00131 µM in [1]; 0.0018 µM in test [2]; > 100 µM in test [3]; > 100 µM in test [4]; 67 µM in test [5]; > 100 µM in test [6]. The IC50 in [7] was 21.5 µM.
As to `O=C(CCCCCCn1cc(C(=O)NCc2ccc(Cl)cc2)c2ccccc21)NO`, the half-maximal inhibitory concentration (IC50) is 0.00231 µM in [1]; 0.00156 µM in test [2]; > 100 µM in test [3]; > 100 µM in [4]; > 100 µM in test [5]; > 100 µM in test [6]. Moreover, the IC50 in test [7] was determined as 72.9 µM.
On to `O=C(CCCCCCn1cc(C(=O)NC23CC4CC(CC(C4)C2)C3)c2ccccc21)NO`, for which the IC50 is 0.00116 µM in test [1]; 0.00192 µM in [2]; > 100 µM in test [3]; 20.8 µM in test [4]; 14.7 µM in test [5]; 45 µM in [6]. Moreover, in [7], the 50% inhibitory concentration (IC50) worked out at 1.05 µM.
Turning to `O=C(CCCCCCC(=O)Nc1ccccc1)NO` [VORINOSTAT], the IC50 in [6] amounted to 3.59 µM. Moreover, the Activity is given as 3.2% in [8] and 36.2% in [9]. The result in test [10] and in test [11] was Active.
Consider `O=C(/C=C/c1ccc(Cn2cc(C(=O)NC3C4CC5CC(C4)CC3C5)c3ccccc32)cc1)NO` (configuration not stated), for which the IC50 was determined as 0.143 µM in test [1] and 0.0733 µM in test [2].
Consider `O=C(CCCCCCn1cc(C(=O)N2CCOCC2)c2ccccc21)NO`, for which the figures for the half-maximal inhibitory concentration (IC50) in test [1] and in [2] were 0.00895 µM and 0.00759 µM, respectively.
Take `O=C(CCCCCCn1nc(C(=O)NC2C3CC4CC(C3)CC2C4)c2ccccc21)NO` (configuration not stated): the IC50 in [1] is 0.00296 µM; in test [2], 0.00272 µM.
